The test system of one experiment is Reck gene promoter. Description: SEAP assay in YM3 cells (Reck gene promoter-reporter system). In kind it is cell-based, mouse. The protocol:
A 4.1-kb upstream region of a mouse Reck gene (Gene ID: 53614, Chromosome 4—NC—000070.5 43884251-43888453) was inserted into a pSEAP2-Basic vector (Clontech) to give a pSEAP-RP4.1 plasmid. […] Biochem Biophys Res Commun 1999; 264: 668-675.). […] TF323-C3 cells can be distributed from one of the inventors Makoto Noda.
YM3 cells were seeded onto 96-well plates at 1×10^4 cells in 100 μl per well and incubation was performed for 5 hours to allow the cells to settle. A compound solution (500 μM, 1 μl) was added to the medium. The employed test compounds were those in the chemical library Prestwick Chemical Library (Prestwick Chemical, Illkirch, France), which is composed of 880 structurally diverse known bioactive compounds, dissolved in nano-pure grade dimethyl sulfoxide (DMSO; Wako). […] A vehicle (DMSO, 1 μl) alone as a negative control and hypothemycin (HPM, 1 mg/ml) as a positive control were added to two wells per plate. Each sample was tested on two different plates (duplicate samples).
After incubation for 48 hours, a portion (10 μl) of the culture supernatant was sampled, incubated at 65° C. (heat treatment) for 30 minutes, and then subjected to the SEAP assay using Great EscAPe™ SEAP Chemiluminescence Detection Kit (Takara Bio). The remaining medium and the cells were subjected to the cell-counting assay using SF reagent. That is, SF reagent (Nacalai) (10 μl per well) was added to the medium, the plates were incubated for 3 hours in a CO2 incubator, and the absorbance at 450 nm (A450) was measured to obtain relative cell numbers. For the SEAP activity data, “SEAP measured value/A450 value” was defined as “SEAP activity per cell”, and the value obtained by dividing “SEAP activity per cell” of each compound by “SEAP activity per cell” of the negative control was defined as “relative SEAP activity”. The mean “relative SEAP activity” of the duplicate samples and the standard error thereof were determined. For the cell number data, the value obtained by dividing the SF measured value of each compound by the SF measured value of the negative control was defined as “relative cell number”, and the mean value of the duplicate samples and the standard error thereof were determined. Samples with a large standard error were tested again. In the experiment, duplicate samples were prepared each in a regular liquid medium and in a liquid medium containing Dox (2 μg/ml), and four mean values (the relative cell number and the relative SEAP activity in the Ras-ON state and the relative cell number and the relative SEAP activity in the Ras-OFF state) were obtained (see FIG. 3).

In a further experiment the test system is RM72 cells. The format is in vivo. To be noted: mouse, in vivo. How it is done:
RM72 cells (3×10^6 cells) suspended in 0.1 ml of PBS were subcutaneously injected into the right posterior flank of Balb/c nude mice (6 weeks old, male, Charles River). […]. After 14-day treatment, the mice were anesthetized and their bioluminescence was recorded by the method described below. After the whole-body recording of the bioluminescence, the lung was resected, washed with PBS (−), and subjected to bioluminescence recording. The tumor size (length×width×height) was measured once a week. Statistical significance was assessed by Student's t-test.
Mice under anesthesia were intraperitoneally injected with 75 mg/kg of d-luciferin dissolved in PBS (−). Bioluminescence images were acquired with IVIS ImagingSystem (Xenogen) at 5 minutes after the injection (Wang S, El-Deiry W S. Requirement of p53 targets in chemosensitization of colonic carcinoma to death ligand therapy. Proc Natl Acad Sci USA 2003; 100: 15095-15100; Minn A J, Kang Y, Serganova I, Gupta G P, Giri D D, Doubrovin M, Ponomarev V, Gerald W L, Blasberg R, Massague J. Distinct organ-specific metastatic potential of individual breast cancer cells and primary tumors. J Clin Invest 2005; 115: 44-55). The photons emitted from the whole bodies or the isolated organs were collected for a period of 60 seconds and integrated. The images were analyzed using Living Image software (Xenogen).
The anti-tumorigenic and anti-metastatic activities of Pyt, Hr, Gra and Lyc were investigated with the same protocol as in Example 9. The experiment was conducted in two batches: Experiment 1 for three groups of a Pyt group, a Hr group and a vehicle group and Experiment 2 for three groups of a Gra group, a Lyc group and a vehicle group. The doses of the test compounds were set at two different quantities considered to be appropriate based on literature (see Tables 3 and 4).

Where [1] appears, read: in the presence of Dox (HRAS12V-off).
Where [2] appears, read: relative SEAP activity at optimal conc., YM3 cells, regular medium (Ras-ON).

Experimental findings from patent US9018438B2, “Screening method for anticancer drugs” (Kyoto University, priority 2010, dated 2015) are described below.

Structures can show the parent of a compound that is named as a salt. Where two headings read alike, the source gives them in different places.

With `CCCSc1ccc2nc(NC(=O)OC)[nH]c2c1` [Albendazole], in the experiment with Reck gene promoter, the “Activity in Dox” value was “± (key: +: more than 1.9-fold; ±: between 1.9 and 1.5-fold; −: less than 1.5-fold)”; the “Induction (fold)” value came to 2.89 fold.
With `CC[C@@]1(O)C(=O)OCc2c1cc1n(c2=O)Cc2cc3ccccc3nc2-1` [Camptothecine (S, +)], in the experiment with Reck gene promoter, the Optimal conc. came to 5.00 µM. In the experiment with Reck gene promoter (setting [1]), the “Activity in Dox” value is listed as “+ (more than 1.9-fold)”. Besides, the “Induction (fold)” value in the experiment with Reck gene promoter (setting [2]) was 7.71 fold.
The corresponding values for `CC[C@H]1CN2CCc3cc(OC)c(OC)cc3[C@@H]2C[C@@H]1C[C@H]1NCCc2cc(O)c(OC)cc21.Cl.Cl.O.O.O.O.O.O.O` [Cephaeline dihydrochloride heptahydrate] are 5.00 µM, “+ (more than 1.9-fold)” and 5.61 fold.
As for `C[C@@H]1C[C@@H]([C@H](O)CC2CC(=O)NC(=O)C2)C(=O)[C@@H](C)C1` [Cycloheximide], in the experiment on Reck gene promoter (setting [1]), the “Activity in Dox” value was “± (between 1.9 and 1.5-fold)”. Further, the “Induction (fold)” value in the experiment on Reck gene promoter (setting [2]) was determined as 2.29 fold.
Consider `COc1cccc2c1C(=O)c1c(O)c3c(c(O)c1C2=O)C[C@@](O)(C(C)=O)C[C@@H]3O[C@H]1C[C@H](N)[C@H](O)[C@H](C)O1` [Daunorubicin hydrochloride], for which, in the experiment on Reck gene promoter (setting [1]), the “Activity in Dox” value was “+ (more than 1.9-fold)”. In addition, in the experiment with Reck gene promoter (setting [2]), the “Induction (fold)” value stood at 6.22 fold.
For the molecule `CN(C)[C@@H]1C(O)=C(C(N)=O)C(=O)[C@@]2(O)C(O)=C3C(=O)c4c(O)ccc(Cl)c4[C@@H](O)[C@H]3C[C@@H]12` [Demeclocycline hydrochloride], the “Activity in Dox” value in the experiment on Reck gene promoter (setting [1]) is “− (less than 1.5-fold)”. Further, the “Induction (fold)” value with Reck gene promoter (setting [2]) is 2.57 fold.
Turning to `CCOC(=O)NC1=C(N2CC2)C(=O)C(NC(=O)OCC)=C(N2CC2)C1=O` [Diaziquone], in the experiment on Reck gene promoter (setting [1]), the “Activity in Dox” value is “± (between 1.9 and 1.5-fold)”. In addition, the “Induction (fold)” value in the experiment with Reck gene promoter (setting [2]) was 3.54 fold.
For the molecule `CCN(CC)C(=S)SSC(=S)N(CC)CC` [Disulfiram], in the experiment on Reck gene promoter (setting [1]), the “Activity in Dox” value is recorded as “+ (more than 1.9-fold)”. Besides, in the experiment on Reck gene promoter (setting [2]), the “Induction (fold)” value was determined as 18.0 fold.
Regarding `C[C@H]1c2cccc(O)c2C(=O)C2=C(O)[C@]3(O)C(=O)C(C(N)=O)=C(O)[C@@H](N(C)C)[C@@H]3[C@@H](O)[C@@H]21` [Doxycycline hydrochloride], in the experiment with Reck gene promoter (setting [1]), the “Activity in Dox” value is recorded as “− (less than 1.5-fold)”. The “Induction (fold)” value in the experiment with Reck gene promoter (setting [2]) came out at 1.96 fold.
`CC[C@H]1CN2CCc3cc(OC)c(OC)cc3[C@@H]2C[C@@H]1C[C@H]1NCCc2cc(OC)c(OC)cc21` [Emetine dihydrochloride]: in the experiment with Reck gene promoter (setting [1]), the “Activity in Dox” value was “− (less than 1.5-fold)”. Also, in the experiment on Reck gene promoter (setting [2]), the “Induction (fold)” value is on record as 3.79 fold.
For `COc1cc([C@@H]2c3cc4c(cc3[C@@H](O[C@@H]3O[C@@H]5CO[C@@H](C)O[C@H]5[C@H](O)[C@H]3O)[C@H]3COC(=O)[C@H]23)OCO4)cc(OC)c1O` [Etoposide] the same measures were “+ (more than 1.9-fold)” and 1.99 fold.
`COc1cc(O)c2c(c1)[C@H]1O[C@@H]1C[C@H](O)[C@H](O)C(=O)/C=C\C[C@H](C)OC2=O` [HPM, hypothemycin]: in the experiment on Reck gene promoter (1 μg/ml), the “SEAP up-regulation in YM3 cells” value is “up-regulated”. In addition, in the experiment on Reck gene promoter (positive control, typical), the “up-regulation of SEAP activity” value is given as “about twofold”.
Consider `Clc1cc(Cl)c(OCC#CI)cc1Cl` [Haloprogin], for which, in the experiment on Reck gene promoter (setting [1]), the “Activity in Dox” value is on record as “+ (more than 1.9-fold)”. The “Induction (fold)” value in the experiment with Reck gene promoter (setting [2]) amounted to 3.48 fold.
For the molecule `CCN(CC)CCNc1ccc(CO)c2sc3ccccc3c(=O)c12` [Hycanthone], the “Activity in Dox” value with Reck gene promoter (setting [1]) is “+ (more than 1.9-fold)”. Also, the “Induction (fold)” value in the experiment with Reck gene promoter (setting [2]) came to 2.02 fold.
As to `CC1=CC(=O)c2ccccc2C1=O` [Menadione], in the experiment with Reck gene promoter (setting [1]), the “Activity in Dox” value was “+ (more than 1.9-fold)”. Also, the “Induction (fold)” value in the experiment with Reck gene promoter (setting [2]) is given as 3.21 fold.
For `CN(Cc1cnc2nc(N)nc(N)c2n1)c1ccc(C(=O)N[C@@H](CCC(=O)O)C(=O)O)cc1` [Methotrexate], in the experiment on Reck gene promoter (setting [1]), the “Activity in Dox” value was “± (between 1.9 and 1.5-fold)”. The “Induction (fold)” value in the experiment on Reck gene promoter (setting [2]) is 3.42 fold.
Turning to `CN(C)c1ccc(O)c2c1C[C@H]1C[C@H]3[C@H](N(C)C)C(O)=C(C(N)=O)C(=O)[C@@]3(O)C(O)=C1C2=O` [Minocycline hydrochloride], the “Activity in Dox” value in the experiment with Reck gene promoter (setting [1]) is recorded as “− (less than 1.5-fold)”. Further, the “Induction (fold)” value with Reck gene promoter (setting [2]) worked out at 2.54 fold.
For `O=C1c2c(O)ccc(O)c2C(=O)c2c(NCCNCCO)ccc(NCCNCCO)c21` [Mitoxantrone dihydrochloride] the same measures were “+ (more than 1.9-fold)” and 3.60 fold.
Take `CC(=O)O[C@H]1C(=O)[C@@]2(C)[C@H]([C@H](OC(=O)c3ccccc3)[C@]3(O)C[C@H](OC(=O)[C@H](O)[C@@H](NC(=O)c4ccccc4)c4ccccc4)C(C)=C1C3(C)C)[C@]1(OC(C)=O)CO[C@@H]1C[C@@H]2O` [Paclitaxel]: the “Activity in Dox” value in the experiment with Reck gene promoter (setting [1]) was “± (between 1.9 and 1.5-fold)”. Moreover, the “Induction (fold)” value with Reck gene promoter (setting [2]) was determined as 3.32 fold.
For `C1CCC(C(CC2CCCCN2)C2CCCCC2)CC1` (stereo not drawn) [Perhexiline maleate], the “Activity in Dox” value in the experiment on Reck gene promoter (setting [1]) is “+ (more than 1.9-fold)”. In the experiment on Reck gene promoter (setting [2]), the “Induction (fold)” value is 2.28 fold.
In the experiment on Reck gene promoter, `COc1cc(/C=C/C(=O)N2CCC=CC2=O)cc(OC)c1OC` [Piperlongumine] gave an Optimal conc. of 5.00 µM. The “Activity in Dox” value with Reck gene promoter (setting [1]) was “− (less than 1.5-fold)”. The “Induction (fold)” value with Reck gene promoter (setting [2]) is 2.06 fold.
In the case of `COc1cc([C@@H]2c3cc4c(cc3[C@H](O)[C@H]3COC(=O)[C@H]23)OCO4)cc(OC)c1OC` [Podophyllotoxin], in the experiment with Reck gene promoter (setting [1]), the “Activity in Dox” value was “± (between 1.9 and 1.5-fold)”. The “Induction (fold)” value in the experiment with Reck gene promoter (setting [2]) was 2.48 fold.
For `CCc1nc(N)nc(N)c1-c1ccc(Cl)cc1` [Pyrimethamine], in the experiment on Reck gene promoter (setting [1]), the “Activity in Dox” value is “± (between 1.9 and 1.5-fold)”. Moreover, the “Induction (fold)” value in the experiment on Reck gene promoter (setting [2]) is recorded as 2.33 fold.
On to `[O-][n+]1ccccc1S` [Pyrithione sodium salt], for which, in the experiment with Reck gene promoter, the “Activity in Dox” value is “+ (key: +: more than 1.9-fold; ±: between 1.9 and 1.5-fold; −: less than 1.5-fold)”; the “Induction (fold)” value is given as 17.5 fold. Also, in the experiment on RM72 cells (15 mg/kg/day), the “Lung metastasis Mean” value amounted to 11.6 and the “Tumor Mean” value is given as 52.2. Besides, in the experiment on RM72 cells (50 mg/kg/day), the “Lung metastasis Mean” value is 84.2 and the “Tumor Mean” value amounted to 74.4.
As to `O=C(c1ccc(OCCN2CCCCC2)cc1)c1c(-c2ccc(O)cc2)sc2cc(O)ccc12` [Raloxifene hydrochloride], in the experiment on Reck gene promoter (setting [1]), the “Activity in Dox” value is on record as “− (less than 1.5-fold)”. For the same molecule, in the experiment on Reck gene promoter (setting [2]), the “Induction (fold)” value is recorded as 2.17 fold.
The corresponding values for `Nc1nc(N)c2nc(-c3ccccc3)c(N)nc2n1` [Triamterene] are “− (less than 1.5-fold)” and 2.25 fold.
For the molecule `CN(C)CCCN1c2ccccc2Sc2ccc(C(F)(F)F)cc21` [Triflupromazine hydrochloride], the “Activity in Dox” value in the experiment with Reck gene promoter was “− (key: +: more than 1.9-fold; ±: between 1.9 and 1.5-fold; −: less than 1.5-fold)”.
Thimerosal: in the experiment with Reck gene promoter, the “Activity in Dox” value was “+ (key: +: more than 1.9-fold; ±: between 1.9 and 1.5-fold; −: less than 1.5-fold)”; the “Induction (fold)” value is 9.33 fold; the Optimal conc. worked out at 5.00 µM.
